# Measured values reported in US6384237B1, “Pyrylium compound, process for making the same, nucleic acid stain, and labeled nucleic acid” (Canon Kabushiki Kaisha, priority 1999, dated 2002).
# Experiments:
# [1] = system: salmon sperm DNA; assay: Spectrofluorimetry of the pyrylium compound with and without salmon sperm DNA; format: binding; conditions: excitation 550 nm; for fluorescence of solution not containing DNA: no DNA; for fluorescence wavelength of solution containing DNA (fluoresces intensely): with salmon sperm DNA
# Description: A fraction of Solution IA and a fraction of Solution IB were diluted so that the concentration of Compound 3 was the same in these diluted solutions. The diluted solutions were subjected to conventional spectrofluorimetry by excitation light having a wavelength of 550 nm.
# A fraction of Solution IIA and a fraction of Solution IIB were diluted so that the concentration of Compound 6 was the same in these diluted solutions. The diluted solutions were subjected to conventional spectrofluorimetry by excitation light having a wavelength of 550 nm.
# [2] = system: salmon sperm DNA; assay: Absorption spectrophotometry of the pyrylium compound free and mixed with salmon sperm DNA; format: binding; conditions: DNA 50 μg/ml, compound 3×10^−5 M, 10 mM phosphate buffer pH 7.0
# Description: Compound 3 prepared in Example 1 (2-(3-carboxypropyl)-4,6-bis(4-N,N-dimethylaminophenyl)pyrylium iodide) was dissolved into a 10 mM phosphate buffer solution (pH 7.0) to prepare Solution IA. A fraction of Solution IA was diluted to a final concentration of 3×10^−5 M, and the diluted solution was subjected to absorption spectrophotometry. The absorption spectrum is denoted by (A) in FIG. 1.
# (§1) A DNA solution was prepared using salmon sperm DNA (mfd. by Sigma-Aldrich Co.) which was adequately purified according to a conventional method. A fraction of the DNA solution and a fraction of Solution IA were mixed to prepare Solution IB in which the final DNA concentration was 50 μg/ml and the final concentration of Compound 3 was 3×10^−5 M. A fraction of Solution IB was subjected to absorption spectrophotometry. The absorption spectrum is denoted by (B) in FIG. 1.
# (§2) With reference to spectrum (A) of Compound 3 and spectrum (B) of Solution IB in FIG. 1, the absorption bands of Solution IB are shifted to longer wavelengths by 30 nm and absorbance is decreased due to interaction between Compound 3 and the DNA. These changes can be attributed to the intercalative characteristics of Compound 3.
# Compound 6 prepared in Example 3 (2-(2-carboxyethyl)-4,6-bis(4-N,N-dimethylaminophenyl)pyrylium iodide) was dissolved into a 10 mM phosphate buffer solution (pH 7.0) to prepare Solution IIA. A fraction of Solution IIA was diluted to a final concentration of 3×10^−5 M, and the diluted solution was subjected to absorption spectrophotometry. The absorption spectrum is denoted by (A) in FIG. 4.
# as §1, with “DNA (Sigma-Aldrich” for “DNA (mfd. by Sigma-Aldrich”, “Solution IIA” for “Solution IA”, “Solution IIB” for “Solution IB”, “Compound 6” for “Compound 3”, “FIG. 4.” for “FIG. 1.”
# as §2, with “Compound 6” for “Compound 3”, “Solution IIB” for “Solution IB”, “FIG. 4,” for “FIG. 1,”, “to” for “to the”, “Compound 6.” for “Compound 3.”
structure (smiles),measurement,setting,value
"CN(C)c1ccc(-c2cc(CCCC(=O)O)[o+]c(-c3ccc(N(C)C)cc3)c2)cc1.[I-] [Compound 3, 2-(3-carboxypropyl)-4,6-bis(4-N,N-dimethylaminophenyl)pyrylium iodide]",fluorescence of solution not containing DNA,[1],does not fluoresce
same,fluorescence wavelength of solution containing DNA (fluoresces intensely),[1],~640 nm
same,change of absorbance due to interaction with DNA,[2],decreased
same,shift of absorption bands to longer wavelengths due to interaction with DNA,[2],30 nm
"CN(C)c1ccc(-c2cc(CCC(=O)O)[o+]c(-c3ccc(N(C)C)cc3)c2)cc1.[I-] [Compound 6, 2-(2-carboxyethyl)-4,6-bis(4-N,N-dimethylaminophenyl)pyrylium iodide]",fluorescence of solution not containing DNA,[1],does not fluoresce
same,fluorescence wavelength of solution containing DNA (fluoresces intensely),[1],~640 nm
same,change of absorbance due to interaction with DNA,[2],decreased
same,shift of absorption bands to longer wavelengths due to interaction with DNA,[2],30 nm
